Values quoted from earlier work in publication PMC7395068, “The evolution of strategies to minimise the risk of human drug-induced liver injury (DILI) in drug discovery and development” (Archives of Toxicology, 2020).
Where two headings read alike, the source gives them in different places.

Experiments:
[1] = cited from earlier work
[2] = cited from earlier work; remark: listed apart in the source
[3] = tested on: primary human hepatocytes, NIH3T3 fibroblasts, BSEP, CYP3A4; conditions: In vitro Assay; ref Schadt 2015; cited from earlier work
PHH = conditions: In vitro Assay; ref Proctor 2017; cited from earlier work
hLiMTs = conditions: In vitro Assay; ref Proctor 2017; cited from earlier work
PHH spheroids = conditions: In vitro Assay; ref Vorrink 2018; cited from earlier work
[4] = tested on: HepG2 C3A spheroid, BSEP, Glu/Gal in HepG2 cells, bioactivation; conditions: In vitro Assay; ref Williams 2019; cited from earlier work
[5] = cited from earlier work; remark: listed apart in the source
[6] = tested on: THLE-Null and THLE-3A4 cells; conditions: In vitro Assay; ref Gustafsson 2014; cited from earlier work
[7] = tested on: HepG2 cells, primary human hepatocytes; conditions: In vitro Assay; ref Garside 2014; cited from earlier work
[8] = tested on: THLE or HepG2 cells, isolated mitochondria, BSEP; conditions: In vitro Assay; ref Aleo 2019; cited from earlier work
rBsep = conditions: In vitro Assay; ref Dawson 2012; cited from earlier work
[9] = binary in vivo DILI call given beside the severity category, ref Chen 2016
[10] = human DILI concern category (LTKB DILIrank), ref Chen 2016
[11] = score by FDA drug labelling, scale 1-8, ref Chen 2011
[12] = LTKB DILIrank category, ref Chen 2016
[13] = binary DILI call, ref Chen 2016
[14] = FDA drug labelling score, ref Chen 2011

## C[C@H](Cn1cnc2c(N)ncnc21)OCP(=O)(O)O [tenofovir]
[1]; [9]
  DILI +VE (5-8), DILI -VE (-4): +VE
[1]; [10]
  DILI severity category: vLess-DILI-Concern
[2]; [11]
  DILI Score (FDA) (1-8): 8

## C[C@H]1O[C@H](O[C@H]2[C@H](O)[C@@H](O)[C@@H](O[C@H]3[C@H](O)[C@@H](O)C(O)O[C@@H]3CO)O[C@@H]2CO)[C@H](O)[C@@H](O)[C@@H]1N[C@H]1C=C(CO)[C@@H](O)[C@H](O)[C@H]1O (some centres unmarked) [acarbose]
[1]; in vivo
  DILI +VE (5-8), DILI -VE (-4): +VE
  DILI severity category: vMost-DILI-Concern
[2]; in vivo
  DILI Score (FDA) (1-8): 5

## C[C@]12COC(=O)C[C@@H]1CC[C@@H]1[C@@H]2CC[C@@]2(C)[C@H]1CC[C@]2(C)O [oxandrolone]
[1]; [9]
  DILI +VE (5-8), DILI -VE (-4): +VE
[1]; [10]
  DILI severity category: vMost-DILI-Concern
[2]; [11]
  DILI Score (FDA) (1-8): 8

## CN(C)[C@@H]1C(O)=C(C(N)=O)C(=O)[C@@]2(O)C(O)=C3C(=O)c4c(O)cccc4[C@@](C)(O)[C@H]3[C@H](O)[C@@H]12 [oxytetracycline]
[1]; [9]
  DILI +VE (5-8), DILI -VE (-4): -VE
[1]; [10]
  DILI severity category: Ambiguous DILI-concern
[2]; [11]
  DILI Score (FDA) (1-8): 2

## CC(C)NCC(O)COc1ccc(COCCOC(C)C)cc1 (centres unmarked) [bisoprolol]
[1]; [12]
  DILI severity category: Ambiguous DILI-concern
[1]; [13]
  DILI +VE (5-8), DILI -VE (-4): -VE
[2]; [14]
  DILI Score (FDA) (1-8): 3

## Nc1nc(O)c2ncn(COC(CO)CO)c2n1 [ganciclovir]
[1]; [12]
  DILI severity category: Ambiguous DILI-concern
[1]; [13]
  DILI +VE (5-8), DILI -VE (-4): -VE
[2]; [14]
  DILI Score (FDA) (1-8): 7

## CN(C)CCOc1ccc(/C(=C(/CCCl)c2ccccc2)c2ccccc2)cc1 [toremifene]
[1]; [9]
  DILI +VE (5-8), DILI -VE (-4): -VE
[1]; [10]
  DILI severity category: Ambiguous DILI-concern
[2]; [11]
  DILI Score (FDA) (1-8): 3

## Cc1ccc(-c2cc(C(F)(F)F)nn2-c2ccc(S(N)(=O)=O)cc2)cc1 [celecoxib]
[1]; ref Chen 2016
  DILI +VE (5-8), DILI -VE (-4): +VE
  DILI severity category: vLess-DILI-Concern
[3]
  Cellular toxicity (3T3 cells): +VE
  GSH adduct HML: -VE
  Hepatocyte cellular toxicity: -VE
  MitoTox 3T3: -VE
  TDI CYP3A4: -VE
  hBSEP inhibition: -VE
PHH
  PHH ATP <100uM: +VE (IC50 threshold of 100 µM)
hLiMTs
  hLiMTs ATP <100uM: +VE (IC50 threshold of 100 µM)
PHH spheroids
  hLiMTs ATP <20 x Cmax: +VE (IC20 < 20 × Cmax.tot cut-off)
[4]
  Bayesian Machine Learning: +VE
[5]; ref Garside 2014
  In vivo DILI: +VE
[5]; ref Gustafsson 2014
  In vivo DILI: +VE
[5]; ref Proctor 2017
  In vivo DILI: +VE
[5]; ref Schadt 2015
  In vivo DILI: +VE
[5]; ref Vorrink 2018
  In vivo DILI: +VE
[5]; ref Williams 2019
  In vivo DILI: +VE
[6]
  THLE-Null: +VE
[7]
  Cluster 1-6 +VE Assay: +VE

## CC(=O)O[C@@]12CO[C@@H]1C[C@H](O)[C@@]1(C)C(=O)[C@H](O)C3=C(C)[C@@H](OC(=O)[C@H](O)[C@@H](NC(=O)OC(C)(C)C)c4ccccc4)C[C@@](O)([C@@H](OC(=O)c4ccccc4)[C@H]21)C3(C)C [docetaxel]
[1]; binary in vivo human DILI call, ref Chen 2016
  DILI +VE (5-8), DILI -VE (-4): +VE
[1]; human DILI, LTKB DILIrank category, ref Chen 2016
  DILI severity category: vLess-DILI-Concern
[2]; FDA drug labelling score, scale 1-8, ref Chen 2011
  DILI Score (FDA) (1-8): 8

## Nc1nc(NC2CC2)c2ncn([C@H]3C=C[C@@H](CO)C3)c2n1 [abacavir]
[1]; [12]
  DILI severity category: vMost-DILI-Concern
[2]; [14]
  DILI Score (FDA) (1-8): 8

## CC(C(=O)O)c1ccc2oc(-c3ccc(Cl)cc3)nc2c1 (centres unmarked) [benoxaprofen]
[1]; ref Chen 2016
  DILI +VE (5-8), DILI -VE (-4): +VE
  DILI severity category: vMost-DILI-Concern
[3]
  Cellular toxicity (3T3 cells): -VE
  Combined Assay: +VE
  GSH adduct HML: -VE
  Hepatocyte cellular toxicity: -VE
  MitoTox 3T3: -VE
  TDI CYP3A4: -VE
  hBSEP inhibition: -VE
[8]
  Partition Hybrid HRM Score: +VE
  Ro2 Hybrid HRM Score: +VE
PHH
  PHH ATP <100uM: -VE
hLiMTs
  hLiMTs ATP <100uM: -VE
PHH spheroids
  hLiMTs ATP <20 x Cmax: -VE
[4]
  Bayesian Machine Learning: +VE
[5]; ref Aleo 2019
  In vivo DILI: +VE
[5]; ref Dawson 2012
  In vivo DILI: +VE
[5]; ref Garside 2014
  In vivo DILI: +VE
[5]; ref Gustafsson 2014
  In vivo DILI: +VE
[5]; ref Proctor 2017
  In vivo DILI: +VE
[5]; ref Schadt 2015
  In vivo DILI: +VE
[5]; ref Vorrink 2018
  In vivo DILI: +VE
[5]; ref Williams 2019
  In vivo DILI: +VE
[6]
  THLE-Null: -VE
  THLE-Null/3A4: -VE
[7]
  Cluster 1-6 +VE Assay: +VE
rBsep
  Inhibition of rBsep cutoff<1& cmax u>.2: +VE
  Inhibition of rBsep cutoff<3: +VE
